This passage reports activation results from publication PMC10175918 (Communications Biology, 2023).

Experiment in all cases: TGFα-shedding assay-based GPCR screening with chimeric Gα subunit proteins
Holding throughout (format): cell-based

The target of test [1] is T1, 348 GPCRs (Homo sapiens, UniProt O43194).
T1 construct: expressed in transfected cells; host or cells: HEK293A
T1 sequence (O43194 1-453): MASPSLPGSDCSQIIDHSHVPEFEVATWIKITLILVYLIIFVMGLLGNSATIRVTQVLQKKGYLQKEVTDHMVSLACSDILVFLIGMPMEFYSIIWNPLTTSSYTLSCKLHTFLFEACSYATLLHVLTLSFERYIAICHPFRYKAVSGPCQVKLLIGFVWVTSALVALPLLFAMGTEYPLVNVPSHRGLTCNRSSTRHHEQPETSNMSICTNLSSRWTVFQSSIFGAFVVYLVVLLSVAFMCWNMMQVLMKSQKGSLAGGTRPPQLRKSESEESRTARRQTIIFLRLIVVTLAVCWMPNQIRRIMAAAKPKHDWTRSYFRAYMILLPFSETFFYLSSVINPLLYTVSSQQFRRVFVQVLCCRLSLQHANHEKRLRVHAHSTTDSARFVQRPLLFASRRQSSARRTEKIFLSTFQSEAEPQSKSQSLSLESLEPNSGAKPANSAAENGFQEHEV

The target of test [2] is T2, 348 GPCRs (Homo sapiens, UniProt Q96P65).
T2 construct: expressed in transfected cells; host or cells: HEK293A
T2 sequence (Q96P65 1-431): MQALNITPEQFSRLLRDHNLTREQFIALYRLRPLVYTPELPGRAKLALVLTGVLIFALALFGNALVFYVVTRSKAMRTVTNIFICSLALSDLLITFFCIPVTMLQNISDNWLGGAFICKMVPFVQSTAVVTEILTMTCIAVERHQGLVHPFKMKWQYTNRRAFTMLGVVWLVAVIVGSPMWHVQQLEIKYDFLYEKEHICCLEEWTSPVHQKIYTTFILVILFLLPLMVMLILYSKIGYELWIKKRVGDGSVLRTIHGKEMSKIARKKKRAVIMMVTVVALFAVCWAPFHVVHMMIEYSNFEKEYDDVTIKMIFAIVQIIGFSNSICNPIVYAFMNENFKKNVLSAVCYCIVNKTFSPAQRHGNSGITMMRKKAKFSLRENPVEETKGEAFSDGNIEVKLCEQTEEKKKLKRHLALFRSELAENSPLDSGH
The following applies: 10µM, Favipiravir 100μM.

Test [3] has as its target T3, 348 GPCRs (Homo sapiens, UniProt Q9Y2T5).
T3 construct: expressed in transfected cells; host or cells: HEK293A

Test [4] has as its target T4, 348 GPCRs (Homo sapiens, UniProt P16473).
T4 construct: expressed in transfected cells; host or cells: HEK293A
The settings on record: 10µM, Favipiravir 100μM.

Test [5] concerns the target T5, 348 GPCRs (Homo sapiens, UniProt O15354).
T5 construct: expressed in transfected cells; host or cells: HEK293A
T5 sequence (O15354 27-613): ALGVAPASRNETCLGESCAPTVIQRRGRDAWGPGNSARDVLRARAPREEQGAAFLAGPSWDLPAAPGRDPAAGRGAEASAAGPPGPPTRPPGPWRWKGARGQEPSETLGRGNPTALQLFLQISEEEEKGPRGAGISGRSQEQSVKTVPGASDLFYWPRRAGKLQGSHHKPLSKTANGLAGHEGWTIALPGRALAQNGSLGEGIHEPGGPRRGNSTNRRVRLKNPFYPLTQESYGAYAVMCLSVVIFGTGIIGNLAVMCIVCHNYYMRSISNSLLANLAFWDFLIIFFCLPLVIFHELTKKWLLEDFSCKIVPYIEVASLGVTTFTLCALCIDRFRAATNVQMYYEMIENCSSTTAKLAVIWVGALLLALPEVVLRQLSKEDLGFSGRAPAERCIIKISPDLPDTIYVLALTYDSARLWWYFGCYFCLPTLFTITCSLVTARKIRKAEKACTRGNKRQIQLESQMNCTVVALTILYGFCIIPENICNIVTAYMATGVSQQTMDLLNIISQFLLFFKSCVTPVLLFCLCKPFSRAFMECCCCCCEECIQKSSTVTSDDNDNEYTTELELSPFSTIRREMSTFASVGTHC
The settings on record: 10µM, Favipiravir 100μM.

Test [6] has as its target T6, 348 GPCRs (Homo sapiens, UniProt P51686).
T6 construct: expressed in transfected cells; host or cells: HEK293A
T6 sequence (P51686 1-369): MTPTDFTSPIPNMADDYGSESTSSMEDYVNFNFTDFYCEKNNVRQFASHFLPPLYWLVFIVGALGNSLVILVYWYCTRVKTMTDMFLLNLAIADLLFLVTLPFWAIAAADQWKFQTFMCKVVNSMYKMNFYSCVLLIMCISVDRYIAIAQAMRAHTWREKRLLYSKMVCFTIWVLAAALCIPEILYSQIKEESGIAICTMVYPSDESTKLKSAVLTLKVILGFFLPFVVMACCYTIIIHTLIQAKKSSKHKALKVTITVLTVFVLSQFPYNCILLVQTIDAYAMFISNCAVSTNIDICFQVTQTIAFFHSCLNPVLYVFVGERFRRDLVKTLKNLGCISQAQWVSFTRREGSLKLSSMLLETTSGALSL
The following applies: 10µM, Favipiravir 100μM.

[7] abbreviates: QRFP (pyroglutamylated RFamide peptide receptor), read-out: % GPCR activation compared to TPA.
Setting [8] is: TSHR (thyroid stimulating hormone receptor), read-out: % GPCR activation compared to TPA.
[9] abbreviates: GPR37 (G protein-coupled receptor 37), read-out: % GPCR activation compared to TPA.
Where [10] appears, read: CCR9 (chemokine (C-C motif) receptor 9), read-out: % GPCR activation compared to TPA.
Where [11] appears, read: read-out: % GPCR activation compared to TPA, GPCR GPR39 (G Protein-Coupled Receptor 39).
Setting [12] is: read-out: % GPCR activation compared to TPA, QRFP (pyroglutamylated RFamide peptide receptor).
Where [13] appears, read: read-out: % GPCR activation compared to TPA, GPCR GPR52 (G protein-coupled receptor 52).
[14] abbreviates: read-out: % GPCR activation compared to TPA, TSHR (thyroid stimulating hormone receptor).
Where [15] appears, read: read-out: % GPCR activation compared to TPA, GPR37 (G protein-coupled receptor 37).
Where [16] appears, read: read-out: % GPCR activation compared to TPA, CCR9 (chemokine (C-C motif) receptor 9).
The mark [17] stands for this setting: GPCR GPR39 (G Protein-Coupled Receptor 39), read-out: % GPCR activation compared to TPA.
[18] abbreviates: GPCR GPR52 (G protein-coupled receptor 52), read-out: % GPCR activation compared to TPA.

Where two headings read alike, the source gives them in different places.

T3 sequence (Q9Y2T5 whole entry): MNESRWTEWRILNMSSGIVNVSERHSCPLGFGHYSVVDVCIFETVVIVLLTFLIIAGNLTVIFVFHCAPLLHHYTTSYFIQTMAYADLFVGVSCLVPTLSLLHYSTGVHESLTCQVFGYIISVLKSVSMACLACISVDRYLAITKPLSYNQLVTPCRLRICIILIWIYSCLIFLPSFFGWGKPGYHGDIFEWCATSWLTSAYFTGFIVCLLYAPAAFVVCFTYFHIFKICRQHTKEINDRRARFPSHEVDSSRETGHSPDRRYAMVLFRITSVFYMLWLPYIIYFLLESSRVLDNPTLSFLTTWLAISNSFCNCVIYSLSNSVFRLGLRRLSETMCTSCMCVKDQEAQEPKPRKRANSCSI
T4 sequence (P16473 21-764): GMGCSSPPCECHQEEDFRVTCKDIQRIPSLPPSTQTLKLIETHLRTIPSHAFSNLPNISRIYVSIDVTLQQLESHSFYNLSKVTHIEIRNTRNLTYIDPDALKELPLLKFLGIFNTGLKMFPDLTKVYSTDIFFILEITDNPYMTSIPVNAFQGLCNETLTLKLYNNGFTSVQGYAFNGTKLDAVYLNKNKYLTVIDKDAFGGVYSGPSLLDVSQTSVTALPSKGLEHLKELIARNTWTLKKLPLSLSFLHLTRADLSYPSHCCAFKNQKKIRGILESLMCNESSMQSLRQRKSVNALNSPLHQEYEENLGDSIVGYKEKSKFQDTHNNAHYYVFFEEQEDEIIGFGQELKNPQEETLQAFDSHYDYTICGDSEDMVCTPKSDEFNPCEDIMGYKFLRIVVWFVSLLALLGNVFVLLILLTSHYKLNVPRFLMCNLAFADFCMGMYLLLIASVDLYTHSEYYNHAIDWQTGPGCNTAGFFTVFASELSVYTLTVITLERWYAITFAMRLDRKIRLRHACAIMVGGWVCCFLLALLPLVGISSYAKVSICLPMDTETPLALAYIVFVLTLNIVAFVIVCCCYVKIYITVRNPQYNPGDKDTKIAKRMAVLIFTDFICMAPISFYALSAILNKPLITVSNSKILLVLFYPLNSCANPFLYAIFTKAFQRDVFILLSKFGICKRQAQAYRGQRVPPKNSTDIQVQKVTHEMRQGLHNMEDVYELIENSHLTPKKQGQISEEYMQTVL

Turning to `NC(=O)c1nc(F)cnc1O` [favipiravir, 6-fluoro-3-hydroxy-2-pyrazinecarboxamide], the activation at 100 µM on 348 GPCRs [1] (GPCR GPR39 (G Protein-Coupled Receptor 39), 100μM, read-out: % GPCR activation compared to TPA) is -6.36%; at 348 GPCRs [2] (setting [7]) it was -2.34%; at 348 GPCRs [3] (GPCR GPR52 (G protein-coupled receptor 52), 100μM, read-out: % GPCR activation compared to TPA) it was -2.31%. Further, the activation at 10 µM is -1.11% at 348 GPCRs [4] (setting [8]), -0.655% on 348 GPCRs [5] (setting [9]) and 2.47% on 348 GPCRs [6] (setting [10]).

As to `CC(C)OC(=O)[C@H](C)N[P@](=O)(OC[C@H]1O[C@@H](n2ccc(=O)[nH]c2=O)[C@](C)(F)[C@@H]1O)Oc1ccccc1` [sofosbuvir], the activation at 10 µM at 348 GPCRs [1] (setting [11]) is -4.93%; on 348 GPCRs [3] (setting [13]), -2.66%; on 348 GPCRs [4] (setting [14]), -0.338%; on 348 GPCRs [5] (setting [15]) it was -2.61%; on 348 GPCRs [6] (setting [16]), -0.977%. The activation at 100 µM at 348 GPCRs [2] (setting [12]) is -1.05%.

For `CCC(CC)COC(=O)[C@H](C)N[P@](=O)(OC[C@H]1O[C@@](C#N)(c2ccc3c(N)ncnn23)[C@H](O)[C@@H]1O)Oc1ccccc1` [remdesivir], the activation at 10 µM is 2.25% at 348 GPCRs [1] (setting [11]); -0.476% on 348 GPCRs [3] (setting [13]); -3.29% on 348 GPCRs [4] (setting [14]); -0.881% at 348 GPCRs [5] (setting [15]); -0.902% at 348 GPCRs [6] (setting [16]). The activation at 100 µM at 348 GPCRs [2] (setting [12]) is -1.33%.

Consider `N#C[C@@]1(c2ccc3c(N)ncnn23)O[C@H](CO)[C@@H](O)[C@H]1O` [GS441524], for which the activation at 10 µM is -9.02% at 348 GPCRs [1] (setting [17]); -1.15% at 348 GPCRs [3] (setting [18]); -1.39% at 348 GPCRs [4] (setting [8]); -2.53% at 348 GPCRs [5] (setting [9]); 2.4% on 348 GPCRs [6] (setting [10]). Further, the activation at 100 µM at 348 GPCRs [2] (setting [7]) is -0.975%.

As to `CC(C)C(=O)OC[C@H]1O[C@@H](n2ccc(NO)nc2=O)[C@H](O)[C@@H]1O` [molnupiravir], the activation at 10 µM on 348 GPCRs [1] (setting [17]) was -11.5%; at 348 GPCRs [3] (setting [18]) it was -1.34%; at 348 GPCRs [4] (setting [8]), -0.502%; on 348 GPCRs [5] (setting [9]) it was -2.05%; on 348 GPCRs [6] (setting [10]), -1.34%. For the same compound, the activation at 100 µM on 348 GPCRs [2] (setting [7]) was -2.8%.
